Reference: paper PMC8847585, “Induction of senescence-associated secretory phenotype underlies the therapeutic efficacy of PRC2 inhibition in cancer” (Cell Death & Disease, 2022)

Legend:
H3K27me3 in HeLa cell = test: Inhibition of cellular H3K27me3 (western blot quantification); assay type: cell-based; details: Homo sapiens, 72 hr of treatment, n = 3
Procedure: Cells were washed once with cold PBS and lysed by RIPA lysis buffer and incubated with 4 × SDS loading buffer at 95 °C for 10 min. Whole cell proteins were used for electrophoresis and then transferred to a nitrocellulose membrane. The membrane was blocked with Tris buffered saline containing 0.075% Tween-20 and 5% non-fat milk. Then the membranes were incubated with primary antibodies overnight at 4 °C. The next day, membranes were incubated with secondary antibodies for 1 h at room temperature.

p16 KO xenograft tumors = test: Subcutaneous p16 KO G401 xenograft tumor study; assay type: in vivo, mice
Procedure: (§1) The animal study design and performance were evaluated and approved by Institutional Animal Care and Use Committee of ShanghaiTech University under the document number of 20201225001 and following the internationally recognized guidelines on animal welfare. To establish G401 xenograft models, WT G401 or p16 knock out cells were washed and resuspended in cold PBS and mixed with Matrigel at 1:1 (v/v) to reach the final ratio of 5 × 10^6 cells per 200 μL. Then the tumor cell mix were injected subcutaneously into the right flank of female Balb/c nude mice (5–6 weeks of age).
(§2) When tumor volume reached around 60-350 mm^3, the mice were numbered and randomized into vehicle or 100 mg/kg MAK683 treatment groups. The random numbers were generated using Excel (Software). The mice with tumor size out of the range were not included in the study. Empirically, at least 6 mice were included for each group. For compound dosing, MAK683 was resolved and suspended in water with 0.5% HPMC and 0.5% Tween at the concentration of 10 mg/mL. Dosing without blinding took place very day in the morning around 8 am. Mice weight and tumor volumes are measured and recorded every 3 days. Tumor volumes were calculated based on perpendicular length and width caliper measurements using the following formula: tumor volume (mm^3) = 0.5 × (length × width^2).
(§3) Tumor tissues were fixed in freshly-prepared 4% PFA for 24 hours, dehydrated through 30%, 50%, 70%, 85%, and 90% ethanol five-minute each, and 100% ethanol triple, permeabilized through xylene five-minute twice and then embedded in paraffin, and finally cut into 5 μm-thick sections. The sections were de-paraffinized with xylene for 10 min triple, rehydrated with ethanol from high to low concentration five minutes each and dH2O twice. […] After cool down to room temperature, endogenous peroxidase was inactivated with 3% H2O2 in methanol. Then the sections were washed with dH2O twice, blocked with 5% normal goat serum in PBS with 0.25% Triton X-100 for 1 hour at room temperature followed by primary antibodies incubation overnight at 4 °C. After HRP-conjugated secondary antibodies were incubated for 1 hours at room temperature, the sections were visualized with DAB. For quantification of Ki-67, H3K27me3 or ITGA2 positivity, the ratios of DAB positive cells to total cells in five representative fields were counted. For quantification of F4/80 positivity, the ratios of DAB positive area to total cells were counted. Five 40 × objective magnification fields per selection were counted and averaged.
Cell senescence study was used by Beyotime in Situ β-galactosidase Staining Kit. Adherent cells were fix by fix-buffer for 15 min at room temperature and wash with PBS twice, then stain by stain-buffer mixture at 37 °C overnight. […]

p16 KO G401 cells = test: Proliferation of p16 KO G401 cells, viable cell count; assay type: cell-based; details: p16 KO G401 clones vs G401; MAK683 at 1 μM (proliferation), 3 μM 3 days (cell cycle)
Procedure: (§4) Viable cell numbers were counted every 3 days up to 15 days by Vi-CELL (Beckman Coulter). For cell cycle analysis, MAK683 treated cells were fixed with pre-chilled 70% ethanol and kept at -20 degree overnight. On the second day, the cells were washed with cold PBS twice and collected by spin at 1000 rpm, digested with RNase A, then stained with 10 μg /mL Propidium Iodide in PBS solution for 30 min at room temperature. The stained cell samples were filtered through 70 μm cell strainer, and the staining signals were detected using flow cytometer (BD Fortessa). The acquired data were further analyzed by Modfit LT.
Two pairs of guide RNAs (Supplementary Table 1) targeting the exon2 of human CDKN2A (NM_000077) were designed using ChopChop website. gRNA oligos were synthesized, annealed and subcloned into the pSpCas9(BB)-2A-GFP (PX458). G401 and A2780 cell lines were transfected with the resultant plasmids, cultured for 48 h, and then applied to the single cell sorting for selecting GFP-positive cell by flow cytometer. Single cell clones were first cultured each well of 96-well plate, and then gradually expanded in larger cultures for further experiments. […]

[1] = Body weight of tumor-bearing animals; assay type: in vivo; details: 100 mg/kg daily, G401 xenograft-bearing mice, 25 days
Procedure: as §2

[2] = test system: WSU-DLCL2 (EZH2-Y641F) cell; test: Anti-proliferation of lymphoma cell WSU-DLCL2, viable cell count; assay type: cell-based; details: Homo sapiens, WSUDLCL2, 216 h, read-out: IC50 of proliferation inhibition
Procedure: as §4

G401 xenograft tumors = test: Subcutaneous G401 xenograft tumor study; assay type: in vivo, mice
Procedure: as §1, §2, §3
Cell senescence study was used by Beyotime in Situ β-galactosidase Staining Kit. Adherent cells were fix by fix-buffer for 15 min at room temperature and wash with PBS twice, then stain by stain-buffer mixture at 37 °C overnight. Frozen tissue sections were counterstained with eosin.

RD cells = test: Cancer cell proliferation, viable cell count; assay type: cell-based; details: up to 15 days
Procedure: as §4

Hs700T cells = test: Cancer cell proliferation, viable cell count; assay type: cell-based; details: Hs700T (SMARCA4-deficiency), up to 15 days
Procedure: as §4

MCAS cells = test: Cancer cell proliferation, viable cell count; assay type: cell-based; details: up to 15 days
Procedure: as §4

HeLa cells = test: Cancer cell proliferation, viable cell count; assay type: cell-based; details: up to 15 days
Procedure: as §4

G401 cells = test: Cancer cell proliferation, viable cell count; assay type: cell-based; details: G401 (SMARCB1 deficiency), up to 15 days
Procedure: as §4

A204 cells = test: Cancer cell proliferation, viable cell count; assay type: cell-based; details: A204 (SMARCB1 deficiency), up to 15 days
Procedure: as §4

A2780 cells = test: Cancer cell proliferation, viable cell count; assay type: cell-based; details: A2780 (ARID1A-deficiency), up to 15 days
Procedure: as §4

G402 cells = test: Cancer cell proliferation, viable cell count; assay type: cell-based; details: G402 (SMARCB1 deficiency), up to 15 days
Procedure: as §4

[3] = p16 KO xenograft, 100 mg/kg, continuous treatment 46 days, treatment endpoint
[4] = 100 mg/kg po qd, 25 days treatment
[5] = WT G401 tumor, 100 mg/kg, continuous treatment 46 days, treatment endpoint

## Cc1ncccc1-c1cnc(NCc2c(F)ccc3c2CCO3)n2cnnc12 [MAK683]
H3K27me3 in HeLa cell
  IC50: 1.01 nM
p16 KO xenograft tumors; p16 KO tumors, 46 days
  Ki67 positivity in tumors: reduced
p16 KO xenograft tumors; [3]
  T/C%: 35.81%
  TGI: 54.18%
p16 KO xenograft tumors; p16 KO xenografts, 46 days
  SA-β-gal signal in tumors: unchanged
p16 KO G401 cells
  Response of p16 KO cells to induced cell cycle arrest and proliferation blockage: partially resistant
[1]
  Animals' body weight: unaffected
[2]
  IC50: 1.15 nM
G401 xenograft tumors; [4]
  TGI: 67.20%
  Tumor volume T/C%: 30.55%
G401 xenograft tumors; 100 mg/kg po qd, day 25
  Ki-67 in treated tumors (IHC): significantly reduced
  SA-β-gal activity in treated tumors: increased
G401 xenograft tumors; 100 mg/kg po qd, day 25, 4 h post treatment
  H3K27me3 in treated tumors (IHC): significantly decreased
G401 xenograft tumors; [5]
  T/C%: 7.21%
  TGI: 91.25%
G401 xenograft tumors; WT tumors, 46 days
  Ki67 positivity in tumors: reduced
  SA-β-gal signal in tumors: increased
RD cells
  Sensitivity of proliferation to treatment: not sensitive
Hs700T cells
  Sensitivity of proliferation to treatment: moderately sensitive
MCAS cells
  Sensitivity of proliferation to treatment: not sensitive
HeLa cells
  Sensitivity of proliferation to treatment: not sensitive
G401 cells
  Sensitivity of proliferation to treatment: sensitive
A204 cells
  Sensitivity of proliferation to treatment: sensitive
A2780 cells
  Sensitivity of proliferation to treatment: moderately sensitive
G402 cells
  Sensitivity of proliferation to treatment: sensitive

## CCN(c1cc(-c2ccc(CN3CCOCC3)cc2)cc(C(=O)NCc2c(C)cc(C)[nH]c2=O)c1C)C1CCOCC1 [EPZ6438]
RD cells
  Sensitivity of proliferation to treatment: not sensitive
MCAS cells
  Sensitivity of proliferation to treatment: not sensitive
HeLa cells
  Sensitivity of proliferation to treatment: not sensitive
A2780 cells
  Sensitivity of proliferation to treatment: similarly inhibited the proliferation

## CS(=O)(=O)c1ccc(-c2cnc(NCc3ccco3)n3cnnc23)cc1 [EED226]
H3K27me3 in HeLa cell
  IC50: 210 nM
[2]
  IC50: 35.9 nM
